Data set [1] deals with T1, Monocarboxylate transporter 1 (Rattus norvegicus) (UniProt P53987).
T1 sequence (whole entry): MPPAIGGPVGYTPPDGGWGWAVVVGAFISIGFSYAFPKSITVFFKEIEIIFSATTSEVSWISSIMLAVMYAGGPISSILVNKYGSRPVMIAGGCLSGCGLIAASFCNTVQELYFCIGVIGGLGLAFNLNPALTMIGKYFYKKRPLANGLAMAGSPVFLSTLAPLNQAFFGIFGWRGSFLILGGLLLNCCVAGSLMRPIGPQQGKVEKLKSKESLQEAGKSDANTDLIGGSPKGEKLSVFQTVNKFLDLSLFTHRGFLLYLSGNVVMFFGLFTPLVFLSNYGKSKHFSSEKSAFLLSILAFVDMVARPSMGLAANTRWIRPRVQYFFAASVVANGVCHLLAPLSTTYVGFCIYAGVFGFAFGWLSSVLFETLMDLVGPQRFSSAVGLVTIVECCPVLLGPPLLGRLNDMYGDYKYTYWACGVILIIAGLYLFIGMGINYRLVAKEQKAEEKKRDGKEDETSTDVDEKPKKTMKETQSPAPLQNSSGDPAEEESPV
The data set is described as follows: (§1) TP_TRANSPORTER: inhibition of lactate uptake in Xenopus laevis oocytes. It is filed as functional, cell-based. More on the design: concentration or dose not given beside the values. The following applies: Oocyte.

The target of data set [2] is T2, Monocarboxylate transporter 2 (Rattus norvegicus) (UniProt Q63344).
T2 sequence (whole entry): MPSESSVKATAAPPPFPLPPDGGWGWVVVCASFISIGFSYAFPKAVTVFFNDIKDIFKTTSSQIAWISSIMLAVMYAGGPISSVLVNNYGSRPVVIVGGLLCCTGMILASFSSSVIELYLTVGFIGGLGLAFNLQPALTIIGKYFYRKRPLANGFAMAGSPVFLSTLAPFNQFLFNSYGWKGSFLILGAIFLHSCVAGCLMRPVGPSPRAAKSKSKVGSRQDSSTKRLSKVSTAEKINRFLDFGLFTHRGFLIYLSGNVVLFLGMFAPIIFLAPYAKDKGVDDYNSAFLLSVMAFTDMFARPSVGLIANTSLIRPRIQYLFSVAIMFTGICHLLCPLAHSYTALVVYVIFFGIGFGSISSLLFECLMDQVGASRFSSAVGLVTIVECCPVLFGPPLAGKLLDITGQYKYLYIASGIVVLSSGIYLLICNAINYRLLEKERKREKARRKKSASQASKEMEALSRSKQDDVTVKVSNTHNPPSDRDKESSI
The description is as §1. More on the design: concentration or dose not given beside the values. The data set is classed as functional, cell-based. The following applies: Oocyte.

For data set [3], the target named is T3, Monocarboxylate transporter 2 (Rattus norvegicus, UniProt Q63344).
T3 sequence (Q63344 whole entry): T2 sequence (whole entry)
The description is as §1. The data set is classed as functional, cell-based, Oocyte.

For data set [4], the target named is T4, Monocarboxylate transporter 1 (Rattus norvegicus, UniProt P53987).
T4 sequence (P53987 whole entry): T1 sequence (whole entry)
The data set is described as §1. The data set is classed as functional, cell-based, Oocyte.

Data set [5] concerns the target Monocarboxylate transporter 1 (Rattus norvegicus) (UniProt P53987). The data set is described as §1. It is filed as functional, cell-based. Further details: concentration or dose not given beside the values. The following applies: Oocyte. The source holds these as a separate data set.
For data set [6], the target named is Monocarboxylate transporter 2 (Rattus norvegicus) (UniProt Q63344). The data set is described as §1. It is filed as functional, cell-based. Further details: concentration or dose not given beside the values. The following applies: Oocyte. This is another data set of the same source.
Compound in data set [7]: C[C@@H](O)C(=O)O
The description is as §1. The data set is classed as functional, cell-based. The following applies: Oocyte.

In general, Ki refers to a measure of affinity in units of concentration, obtained from inhibition or displacement. One may read the IC50 as the point on the concentration scale where inhibition reaches its midpoint. As a reminder, the Km is the substrate concentration at which the rate is half of its maximum.

Turning to `CC(=O)Oc1ccccc1O`, the Activity in data set [1] is 92%; in data set [2] it was 105%.
On the same counts, the results for `CCCCCC#CCC#CCC#CCC#CCCCC(=O)O` are 117% and 125%.
In the case of `CCCN(CCC)S(=O)(=O)c1ccc(C(=O)O)cc1`, the Activity is 110% in data set [1] and 88% in data set [2].
Consider `O=C(O)C(O)c1ccccc1` (stereo not drawn), for which the figures for the Activity in data set [1] and in data set [2] were 97% and 117%, respectively.
On the same counts, the results for `O=C(O)CC12CC3CC(CC(C3)C1)C2` are 96% and 113%.
The like results for `O=C(O)c1c2ccccc2cc2ccccc12` were, in that order, 102% and 104%.
Consider `O=C(O)c1cc([N+](=O)[O-])ccc1NCCCc1ccccc1`, for which the Activity is 54% in data set [1] and 25% in data set [2].
On the same counts, the results for `O=C(O)c1ccc(-c2ccccc2)cc1` are 88% and 74%.
For `O=C(O)c1cccnc1Nc1cccc(C(F)(F)F)c1`, the Activity was 36% in data set [1] and 14% in data set [2].
The like results for `O=[N+]([O-])c1ccc(/C=C/c2ccc([N+](=O)[O-])cc2S(=O)(=O)O)c(S(=O)(=O)O)c1` were, in that order, 112% and 119%.
For `c1ccc(CSSCc2ccccc2)cc1`, the Activity was 99% in data set [1] and 44% in data set [2].
Consider `CC(O)CC(=O)O` (racemic) [3-HYDROXYBUTYRIC ACID, (+/-)-], for which the Ki in data set [3] was found to be 1200 µM.
On the same count and under the same terms, the value for `CC(C)CC(=O)C(=O)O` [2-Oxoisohexanoate] was 100 µM; that for `CC(C)C(=O)C(=O)O` [2-Oxoisovalerate] was 300 µM.
Same read-out and setting: for `CC(=O)CC(=O)O` [ACETOACETIC ACID] the value was 800 µM.
Take `CCc1oc2ccccc2c1C(=O)c1cc(Br)c(O)c(Br)c1` [BENZBROMARONE]: the IC50 in data set [4] was 22 µM; in data set [3], 9 µM. Besides, the Activity in data set [1] is 19%; in data set [2] it was 12%.
The like results for `O=C(CCc1ccc(O)cc1)c1c(O)cc(O)cc1O` [PHLORETIN] were, in that order, 28 µM, 14 µM, 14% and 3%.
In data set [3], `CC(=O)C(=O)O` [PYRUVATE] had a Ki of 80 µM.
Consider `O=c1c(O)c(-c2ccc(O)c(O)c2)oc2cc(O)cc(O)c12` [QUERCETIN], for which the IC50 in data set [4] worked out at 14 µM; in data set [3], 5 µM. Moreover, the Activity in data set [1] was 11%; in data set [2], 17%.
The like results for `N#C/C(=C\c1ccc(O)cc1)C(=O)O` [alpha-CYANO-4-HYDROXYCINNAMIC ACID] were, in that order, 425 µM, 24 µM, 74.4% and 34%.
Take MERCURIC CHLORIDE: the values for the Activity in data set [5] and in data set [6] were 37% and 54%, respectively.
p-Chloromercuribenzenesulfonate: the Activity in data set [5] was 9%; in data set [6], 118%.

B1: Monocarboxylate transporter 2 (Rattus norvegicus), Q63344 (protein)
chain: T2 sequence (whole entry)
With B1, in data set [7], the Km worked out at 740 µM.

Source of the values: ChEMBL document CHEMBL2074520, “Characterization of the high-affinity monocarboxylate transporter MCT2 in Xenopus laevis oocytes” (Biochem J, 1999).
